Data: US9580713B2 (priority 2011, dated 2017)
Several values for one entry are separate records, joined by “and”; a condition that tells them apart may be missing. Equal entries are not always repeated. Entries after “also recorded” stand apart in the source; their conditions may differ. Where two headings read alike, the source gives them in different places.

Tests used:
[1] = system: 78 Psy crcB motif RNA (fluoride riboswitch aptamer); assay type: binding, Pseudomonas syringae
crcB motif RNA [2] = settings: read-out: KD for fluoride binding; in-line probing
Description: (§1) Briefly, in vitro transcribed RNA were 5′ ^32P-radiolabeled and trace amounts (˜1 nM) were incubated at room temperature for 48 hours (unless otherwise indicated) in the presence of 100 mM KCl, 50 mM Tris-HCl (pH 8.3 at 23° C.), and 20 mM MgCl2. Cleavage products were separated by using denaturing 10% PAGE and imaged with a PhosphorImager (Molecular Dynamics). ImageQuant 5.1 was used to establish band intensities. Exceptions to the typical in-line probing methods are detailed in the following sections.

crcB motif RNA [3] = settings: read-out: KD for fluoride binding; in-line probing; remark: listed apart in the source
Description: as §1

[4] = system: crcB KO strain of E. coli; experiment: microbe, parasite or virus in culture
Description: (§2) Cell growth of WT and crcB KO E. coli strains were measured overnight using a Bioscreen C instrument (Oy Growth Curves Ab Ltd, Finland). The amount of fluoride added to the media was varied to measure the effect on growth at several pH values. Reporter constructs with B. cereus or P. syringae riboswitch sequences fused to the lacZ gene were cloned into the vectors pDG1661 or pRS414, respectively. The two vectors were transformed into B. subtilis or E. coli, and gene expression was examined by addition of X-gal into grown cultures or quantified with Miller assays.
(§3) Growth curves to compare pH conditions used 350 μL of LB (neutral pH) or LBK medium (pH 5.5), 3.5 μL of an overnight culture, and 3.5 μL, of a 10× sodium fluoride or sodium chloride solution. Growth curves with empty or eriC^F-containing plasmid included 100 μg mL^−1 carbenicillin added to the growth medium (2XLB), which was subsequently diluted two-fold to a final concentration of 50 μg mL^−1.
(§4) E. coli strains BW25113 and its crcB KO derivative strain harboring the eriC^F riboswitch reporter construct were streaked on modified LB plates with carbenicillin (100 μg mL^−1) and X-gal (800 μg ml^−1). Plates included 0, 0.2 or 50 mM NaF.

[5] = system: fluoride riboswitch from the P. syringae eriC gene fused to lacZ
Description: as §2
The 5′ UTR of COG0038 (eriC^F homolog) was amplified from P. syringae DC3000 genomic DNA as an EcoRI-BamHI fragment and cloned into the translational reporter vector pRS414. […] Specifically, the region encompassing nucleotides −248 to +24 with respect to the beginning of the eriC^F ORF was cloned as a translational fusion in pRS414, wherein the 8th codon of the ORF was fused in frame to the 9th codon of lacZ reporter gene. Mutations in the regulatory region were generated by a three-step PCR approach using methods described previously (A. Nahvi, et al., Chem. Biol. 9, 1043 (2002)).
as §4

[6] = system: riboswitch associated with B. cereus crcB fused to lacZ; settings: increasing amounts of fluoride, X-gal and Miller assays with ONPG
Description: as §2

[7] = system: eriC^F-rescued E. coli crcB KO cells
Description: The eriC^F gene from P. syringae DC3000 was amplified from genomic DNA by PCR and cloned into the pCR2.1 TA vector (Invitrogen). The cloned fragment contained the full length eriC^F ORF, the 5′ UTR features described above, and the native promoter to drive expression.
as §3

[8] = biological target: T1, fluoride transporter protein CrcB (Escherichia coli, UniProt P37002); experiment: Fluoride riboswitch beta-galactosidase reporter (4-MUG) in E. coli with imipramine; assay type: cell-based
T1 construct: this bacterial species does code for a CrcB protein; endogenous in cells; host or cells: E. coli
T1 sequence (P37002 whole entry): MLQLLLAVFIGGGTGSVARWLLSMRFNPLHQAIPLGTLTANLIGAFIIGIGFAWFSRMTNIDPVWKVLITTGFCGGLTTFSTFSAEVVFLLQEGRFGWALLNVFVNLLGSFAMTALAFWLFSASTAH
Excerpt: (§5) A fluoride riboswitch fused to a beta-galactosidase reporter gene is present in E. coli cells and cells are exposed to concentrations of sodium fluoride and imipramine (x-axis) as noted. The structure of imipramine is shown below.

[9] = system: E. coli cells lacking the gene to express the fluoride transporter protein CrcB; experiment: Fluoride riboswitch beta-galactosidase reporter (4-MUG) in E. coli lacking CrcB with imipramine; assay type: cell-based; settings: same construct in cells lacking CrcB, compared with cells having CrcB
Excerpt: as §5

[10] = ligands at 10 mM or as in footnotes of Tables 1 and 2 (CO ~0.9 mM, NO 1 mM)

Description for WT E. coli cells: For each bacterial strain, an overnight culture was set up of the desired bacteria the previous day. The majority of the growth curves were conducted in 350 μL LB medium that initially was not supplemented with salt. […] The desired concentration of NaF or NaCl was subsequently added as designated for each culture after a 1:100 dilution of an overnight culture. Wells with NaF concentrations below 1 mM were supplemented with 1 mM NaCl. Each condition was set up in duplicate or triplicate. Every fifteen minutes the 100-well plate was shaken at medium intensity for 10 seconds and the OD600 was automatically measured for a period of 16 hours. The data was analyzed using Microsoft Excel.

## [Ca+2].[Cl-].[Cl-] [Ca^2+, calcium chloride]
[1]
  effect on fluoride-dependent RNA structural modulation: diminishes RNA structural modulation; also recorded: complete loss of modulation

## [F-].[Na+] [NaF, sodium fluoride]
[1]
  conformational changes of 78 Psy crcB motif RNA: trigger identical conformational changes
WT E. coli cells; liquid media
  concentration at which growth becomes noticeably reduced: 30 mM
WT E. coli cells; liquid media, 16 hr growth curves
  minimum inhibitory concentration (MIC): ~200 mM

## CCCC[N+](CCCC)(CCCC)CCCC.[F-] [TBAF, Tetra-n-butylammonium fluoride]
[1]
  conformational changes of 78 Psy crcB motif RNA: trigger identical conformational changes

## Br [bromide]
[1]
  binding / structure modulation by other ligands: rejects

## [C-]#[O+] [carbon monoxide]
[1]; [10]
  binding / structure modulation by other ligands: rejected

## Cl [chloride]
[1]
  78 Psy aptamer structure on exposure to chloride: remains unchanged
  binding / structure modulation by other ligands: rejects

## F [fluoride]
[1]
  selectivity of aptamer binding, fluoride versus chloride: at least 40,000 fold
[1]; read-out: apparent dissociation constant (KD)
  Kd: ~60 µM and 60 µM
crcB motif RNA [2]
  Kd: ~50 µM
crcB motif RNA [3]
  Kd: ~50 µM
[4]; 50 mM fluoride
  growth: fails to grow
[4]; Escherichia coli, 16 h, read-out: minimum inhibitory concentration (MIC)
  MIC: > 1 mM
[5]; crcB K.O. strain
  fluoride concentration in growth medium yielding maximal reporter gene signal: 1 mM
[5]; solid medium supplemented with 50 mM fluoride
  β-galactosidase expression: readily apparent
[6]
  β-galactosidase reporter activity: induced high levels of expression
[7]; 1 mM fluoride
  growth inhibition: almost no growth inhibition
[7]; eriC^F-rescued cells
  fluoride concentration in culture medium required to cause growth inhibition and reporter expression: ~10 mM
WT E. coli cells; 50 mM fluoride
  growth: robust growth

## O [hydroxide ions, hydroxide]
[1]; pH 9.7
  RNA conformational changes with hydroxide: do not trigger RNA conformational changes

## CN(C)CCCN1c2ccccc2CCc2ccccc21 [imipramine, 3-(10,11-dihydro-5H-dibenzo[b,f]azepin-5-yl)-N,N-dimethylpropan-1-amine]
[8]; 330 μM imipramine, with sodium fluoride
  reporter gene expression (fluorescence, 4-MUG): increased expression of the reporter gene
[8]; concluded from reporter results with and without CrcB
  action on fluoride transporter CrcB: blocks this fluoride transporter
[9]
  level of reporter gene expression with imipramine: substantially reduced

## I [iodide]
[1]; [10]
  binding / structure modulation by other ligands: rejects

## [N]=O [nitric oxide]
[1]; [10]
  binding / structure modulation by other ligands: rejected

## F.[F-].[K+] [potassium bifluoride]
[1]
  conformational changes of 78 Psy crcB motif RNA: trigger identical conformational changes
